Results on one compound are retold here after article PMC8222276 (Communications Biology, 2021).

Experiment [1] deals with T1, AM1 receptor (CLR-RAMP2) in HUVECs (Homo sapiens, UniProt O60895+Q16602).
T1 construct: HUVECs specifically express the AM1 receptor alone; host or cells: primary HUVECs
Kind of experiment: ERK1/2 phosphorylation in HUVECs. Format: cell-based. On the procedure: (§1) Data are analysed using a three-parameter non-linear regression curve or the operational model of receptor agonism. g–h Signalling bias plots were calculated as ∆Log(τ/KA) (g) or ∆∆Log(τ/KA) (h) for each agonist and for each signalling pathway. […] Solid arrows indicate known pathways. Dashed arrows represent possible pathways.
Data are analysed using a three-parameter non-linear regression curve. All data represent mean ± SEM of n independent experiments. Statistical significance determined compared to control using an unpaired Student’s t test with Welch’s correction (*p < 0.05; **p < 0.01; ***p < 0.001).
Primary cells were grown in 6 well plates, on the day of the experiment media was replaced with serum free media 4 h prior to cell harvesting. Tyrpsin-EDTA was used to dissociate the cells and they were collected by centrifugation, counted and re-suspended HBSS/BSA (0.1%). Ligands were also diluted in HBSS/BSA. Cells were then plated on 384 well plates in 8 μl aliquots at a density of 20,000 cells/well. Next, ligands were added (4 μl) for 5 min stimulation at room temperature. Cells were then lysed as per to the manufacturer’s instructions with 4 μl of lysis buffer (Cisbio phosphor-ERK1/2 cellular assay kit, Invitrogen, UK) for 30 min shaking at room temperature. The 2 specific antibodies; were pre-mixed in a 1:1 ratio. 4 μl of this was added to each well and the plate incubated for a further 2 h. […] Antagonist studies were performed in the same way through co-stimulation with PTX (200 ng/ml), Rp-8-Br-cAMPS (100 μM), YM-254890 (100 nM), or ESI-09 (100 μM) as appropriate alongside control-treated cell.
(§2) All sample sizes were determined, and data analysed, in accordance with the guidelines described by Curtis M et al.[65]. All experiments were appropriately controlled using ‘system pathway’ agonists. If any of these pathway controls generated inappropriate responses, then the entire data set was removed from analysis. […] Data analysis for cAMP accumulation, Ca^2+i mobilisation, NO accumulation, pERK1/2 activation, and cell proliferation assays were performed in GraphPad Prism 8.4 (GraphPad Software, San Diego). Data were fitted to obtain concentration–response curves using either the three-parameter logistic equation using to obtain values of Emax and pEC50 or the operational model of agonism. Statistical differences were analysed using one-way ANOVA followed by Dunnett’s post-hoc (for comparisons amongst more than two groups) or unpaired Student’s t test with Welch’s correction (for comparison between two groups). To account for the day-to-day variation experienced from the cultured cells, we used the maximal level of cAMP accumulation from cells in response to 100 μM forskolin stimulation was used as a reference, 10 μM ionomycin for Ca^2+i assays, 10 μM phorbol 12-myristate 13-acetate (PMA) for pERK1/2 activation, 10 μM acetylcholine for NO production and 10 μM VEGF for cell proliferation. […] Where appropriate the operational model for receptor agonism[27] was used to obtain efficacy (τ) and equilibrium disassociation constant (KA) values. In both cases, this normalisation removes the variation due to differences in days but retains the variance for control values. The means of individual experiments were combined to generate the curves shown. Having obtained values for τ and KA these were then used to quantify signalling bias as the change in Log(τ/KA)[19],[28]. Error for this composite measure was propagated by applying Eq. 1.1 PooledSEM=(SEMA)^2+(SEMB)^2 Where, SEMA and SEMB are the standard error of measurement A and B.

The next experiment concerns HUVECs. Put plainly: cell proliferation (72 h) of HUVECs. Format: cell-based, human. Conditions: HUVEC. On the procedure:
as §1
(§3) Both endothelial cell lines and HCMs were seeded at a density of 2500 cells/well in a clear flat bottom 96-well plate (Corning, UK) and incubated at 37 °C in 5% CO2. After 24 h, cells were exposed to test compounds or vehicle, in complete endothelial cell growth media (HUVECs) or myocyte growth media (HCMs). Cells were incubated for a further 72 h at 37 °C in 5% CO2. After 72 h incubation, 5 μl of Cell Counting Kit–8 (CCK-8, Sigma, UK) was added to each well and cells were then incubated for another 2 h at 37 °C in 5% CO2 and in the dark[61]. The absorbance of each well was measured using a Mithras LB940 microplate reader with an excitation of 450 nm. The absorbance is directly proportional to the number of viable cells. Cell proliferation was calculated as a percentage of number of cells treated with vehicle alone.
as §2

Experiment [2] concerns the target T2, AM1 receptor (CLR-RAMP2) in HUAECs (Homo sapiens, UniProt O60895+Q16602).
T2 construct: host or cells: primary HUAECs
Put plainly: mobilisation of Ca2+i in HUAECs. It is filed as cell-based. On the procedure: All cell lines were plated at 20,000 cells/well on 96-well black clear-bottom plates (Costar, UK) 24 h before the experiment. […] Cells were then washed twice with calcium-free HBSS, then were left in 100 μl calcium-free HBSS for the duration of the assay. […] Data was normalised to the response seen with 10 μM Ionomycin.
as §2
(§4) (1 picture or pasted object on this page, not shown here)

In a further experiment the test system is HUAECs. Kind of experiment: cell proliferation (72 h) of HUAECs. It is filed as cell-based, human. The settings on record: HUAEC. As to the method: as §3, §2, §4
The next experiment deals with heart. Conditions: cited from earlier work.
Where [3] appears, read: pERK1/2, HUVEC, operational model, mean ± SEM.
[4] abbreviates: Growth, calculated from Table S1.
Setting [5] is: proliferation, 72 h, CCK-8, mean ± SEM.
[6] abbreviates: proliferation, 72 h, mean ± SEM of 3-6 data sets.
Setting [7] is: proliferation, operational model, mean ± SEM.
Where [8] appears, read: Ca2+i, HUAEC, operational model, mean ± SEM.

T1 sequence (Q16602 23-461): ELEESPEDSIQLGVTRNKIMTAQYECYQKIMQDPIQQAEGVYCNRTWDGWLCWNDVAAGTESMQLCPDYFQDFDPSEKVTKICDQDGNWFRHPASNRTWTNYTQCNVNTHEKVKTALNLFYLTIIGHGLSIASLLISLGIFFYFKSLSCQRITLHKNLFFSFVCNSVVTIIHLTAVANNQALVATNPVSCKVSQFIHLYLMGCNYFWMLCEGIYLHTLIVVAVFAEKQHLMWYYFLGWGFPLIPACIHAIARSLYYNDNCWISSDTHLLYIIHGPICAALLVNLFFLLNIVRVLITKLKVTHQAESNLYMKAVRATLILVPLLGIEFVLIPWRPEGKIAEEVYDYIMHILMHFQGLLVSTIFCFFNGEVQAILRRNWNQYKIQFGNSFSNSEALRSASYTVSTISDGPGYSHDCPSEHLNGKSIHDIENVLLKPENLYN
T1 sequence (O60895 43-175): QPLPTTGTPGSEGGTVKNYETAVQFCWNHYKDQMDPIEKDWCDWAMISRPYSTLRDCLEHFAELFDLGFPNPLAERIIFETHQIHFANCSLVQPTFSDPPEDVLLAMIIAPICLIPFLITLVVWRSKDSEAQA
T2 sequence (Q16602 23-461): as the sequence (Q16602 23-461) above
T2 sequence (O60895 43-175): as the sequence (O60895 43-175) above

For orientation: pEC50 means the negative decadic logarithm of the EC50, by convention in mol/L. Low readings indicate a high EC50, high ones a low EC50. As for `CSCC[C@H](NC(=O)[C@H](CC(C)C)NC(=O)[C@H](CCC(N)=O)NC(=O)[C@H](Cc1c[nH]c2ccccc12)NC(=O)[C@H](CC(C)C)NC(=O)[C@H](CCCNC(=N)N)NC(=O)[C@H](Cc1c[nH]cn1)NC(=O)[C@H](CO)NC(=O)[C@H](CC(C)C)NC(=O)[C@H](CC(N)=O)NC(=O)[C@H](CCC(N)=O)NC(=O)[C@@H](NC(=O)[C@H](CCC(N)=O)NC(=O)[C@@H]1CSSC[C@H](NC(=O)CNC(=O)[C@@H](NC(=O)[C@H](CCCNC(=N)N)NC(=O)[C@H](CC(C)C)NC(=O)[C@H](CC(C)C)NC(=O)[C@H](CCC(N)=O)NC(=O)[C@H](C)NC(=O)[C@H](CCC(N)=O)NC(=O)[C@@H](N)[C@@H](C)O)C(C)C)C(=O)N[C@@H](C(C)C)C(=O)N[C@@H](CC(C)C)C(=O)NCC(=O)N[C@@H]([C@@H](C)O)C(=O)N1)C(C)C)C(=O)NCC(=O)N1CCC[C@H]1C(=O)N[C@@H](C)C(=O)NCC(=O)N[C@@H](CCCNC(=N)N)C(=O)N[C@@H](CCC(N)=O)C(=O)N[C@@H](CC(=O)O)C(=O)N[C@@H](CO)C(=O)N[C@@H](C)C(=O)N1CCC[C@H]1C(=O)N[C@H](C(=O)N[C@@H](CC(=O)O)C(=O)N1CCC[C@H]1C(=O)N[C@@H](CO)C(=O)N[C@@H](CO)C(=O)N1CCC[C@H]1C(=O)N[C@@H](Cc1c[nH]cn1)C(=O)N[C@@H](CO)C(=O)N[C@@H](Cc1ccc(O)cc1)C(N)=O)C(C)C` [AM2, adrenomedullin 2], the Emax was found to be 33.3 ± 4.59% in experiment [1] (HUVEC), 103.74±1.43% in the experiment on HUVECs (setting [5]), 50.1 ± 3.22% in experiment [2] and 111.68±1.62% in the experiment with HUAECs (setting [5]). Further, the “mechanism of ERK1/2 stimulation” value in experiment [1] (HUVEC) is on record as “mediated in a Gi/o-dependent manner”. Besides, the “effect of PTX on ERK1/2 phosphorylation” value in experiment [1] (HUVEC, PTX) was “suppression of ERK1/2 phosphorylation”. Moreover, the “Transducer coefficient Log(τ/KA)” value in experiment [1] (pERK1/2, HUVEC, calculated from Table S1) is 5.06±0.21; in the experiment with HUVECs (setting [4]), 5.74±0.92; in experiment [2] (Ca2+i, HUAEC, calculated from Table S1), 7.60±0.14; with HUAECs (setting [4]), 5.81±1.89. The logτ is recorded as -0.35±0.08 in experiment [1] (setting [3]), -1.29±0.20 with HUVECs (setting [7]), -0.01±0.05 in experiment [2] (setting [8]) and -1.10±0.26 in the experiment with HUAECs (setting [7]). For the same compound, the pKA in experiment [1] (setting [3]) stood at 5.41±0.19; with HUVECs (setting [7]) it was 7.03±0.90; in experiment [2] (setting [8]), 7.61±0.13; in the experiment with HUAECs (setting [7]), 6.91±1.87. Also, the figures for the pEC50 in the experiment on HUVECs (setting [6]) and in the experiment with HUAECs (setting [6]) were 7.06±0.9 and 6.87±0.48, respectively. Also, in the experiment with heart, the “effect of protein kinase inhibitors on contraction effect” value is “blocked by both inhibitors of both protein kinase A and C”.
